Measured values as given in publication PMC9147645, “Food-Derived β-Carboline Alkaloids Ameliorate Lipid Droplet Accumulation in Human Hepatocytes” (Pharmaceuticals, 2022).
Read-outs that look alike come from different tables or passages of the source.

Assays:
[1] = Cytotoxicity / lipocytotoxicity assay (CCK-8); format: cell-based; conditions: human, HepG2 cells
Method: HepG2 cells were purchased from the American Type Culture Collection (ATCC) (Manassas, VA, USA). High-glucose DMEM containing 10% heat-inactivated FBS and 1% penicillin–streptomycin was maintained under a humidified atmosphere at 37 °C with 5% CO2, as indicated in the Supplementary Materials. HepG2 cells (1.5 × 10^4/well) in DMEM supplemented with 10% FBS were seeded into a 96-well plate. A cytotoxicity assay was performed according to the manufacturer’s protocol using CCK-8 (Dojindo Molecular Technologies), as indicated in the Supplementary Materials (Materials and Methods). […]
2 1.2. Cytotoxicity assay […] HepG2 cells (1.5 × 10^4/well) in DMEM supplemented with 10% FBS were under reduced pressure, and H2O (25 ml) was added. Then the solution was seeded into a 96-well plate. The cytotoxicity assay was done using CCK-8 extracted with AcOEt after adjusted to 9–10 with aq. NaOH solution. The organic (Dojindo Molecular Technologies) according to the manufacturer's protocol. […]
Compounds 1 and 3. To a stirred soln. Compound 10 (218 mg, 1.00 mmol), 5- Technologies, Rockville, USA) according to the manufacturer ’sinstructions. Cell Acetoxymethylfurfural (1, 168 mg, 1.00 mmol) and Nano CuO (7.955 mg, 0.1 suspension (100 μl/well) was inoculated in a 96-well plate (Iwaki, Japan), and mmol) were added 6 ml of DMF. The mixture was stirred at 90℃ for 16 h. The pH once monolayers were observed, treatments were added (n = 3 per each of the aqueous solution was adjusted to 9–10 with aq NaOH solution after adding treatment). Cells were then pre-incubated with the treatments for 24 h before H O. After extracting the solution with AcOEt, the organic layer was washed with assay to determine cell viability.Absorbance was measured at 450 nm using a 2 plate reader (PerkinElmer-ARVO-MX-ID 10533234, Japan). […]
[5-(hydroxymethyl)-2-furanyl]-1H-pyrido[3,4-b]indole-3-carboxylic acid (2, CAS culture medium was removed from each dish, and cells were washed Registry Number 896466-77-6); flazine methyl ester acetate (3, CAS Registry and rinsed with 1× PBS. Cells were then fixed for 20 min in 10% formalin and Number 104537-95-3); flazin (4, CAS Registry Number 100041-05-2); washed twice using PBS. Then, Oil Red O dye was added to the dishes and incubated for 20 min. Finally, the dye was removed from each dish and cells 5

HepG2 cells [2] = assay: Lipid droplet accumulation inhibition (LDAI) assay, Oil Red O, oleic acid-loaded cells; format: cell-based, human; conditions: HepG2 + 0.25 mM oleic acid, vs untreated control (+OA)
Method: LDAI assay: LDAI activity was determined using an Oil Red O assay with 24-well plates (n = 4 per treatment). Staining of LDs in cultured hepatocytes was performed according to the manufacturer’s instructions, based on the Oil Red O staining assay. Briefly, HepG2 cells (1.5 × 10^4/well) were supplemented with 10% FBS, cultured, seeded in 35-mm dishes, and treated with the tested samples after 24 h. Oil Red O, a fat-soluble dye, is widely used for staining neutral lipids in LDs, as described in the Supplementary Materials. […]
2 1.2. Cytotoxicity assay dropwise under ice-cooling. […]
Lipid droplet accumulation inhibition assay and Real-Ti me LDAI acid tryptophan (9) and compound 12 were subjected to acid conversion at 90 °C accumulation in acetic acid to obtain compound 2 (1H and 13C, see in Supporting Information). Lipid droplet accumulation inhibition (LDAI) activity was determined using an Synthesis of Compound 4. To a stirred soln . compound 3 in MeOH was added oilred assay in a 24-well plate according to the manufacturer ’sinstructions (n = 4 with NaOH (2 mol/L). Compound 4 was obtained after stirringthe mixture at 65℃ per each treatment). Real-time oleic induced-LD inhibition was performed by for 5 h. (1H and 13C, see Figures S10 and S11). We also prepared similar using a Nikkon microscope. Morphological analysis of HepG2 cells after compounds without any substituent at the C-1 position in the C-ring using a one- treatment with control(-OA) and (+OA) or compound at different concentrations pot Pictet–Spengler reaction (6-8). was determined by staining with AO/EB.
Synthetic b-carboline alkaloids (1-8): 1.4. Oil Red O Staining.
CAS Registry Number of all the series of synthetic b-carboline alkaloids (1-8) HepG2 cells were cultured and treated in 35 mm dishes, as described above. were subjected to biological evaluation: 1H-Pyrido[3,4-b]indole-3-carboxylic acid, Oil Red O dye was used for LD staining. Oil Red O was dissolved in isopropanol 1-[5-[(acetyloxy)methyl]-2-furanyl]-2,3,4,9-tetrahydro-, methyl ester, (1S-trans)- as 3 mg/mL and diluted with water so that isopropanol became 60%. Oil Red O (9CI) (1,CAS Registry Number 11 5 1 0 7-75-0;11 5 1 0 7-76-1);2,3,4,9-Tetrahydro-1-solutionwasfilteredbya0.4 μm pore syringe filter.For cellular staining, the […]

HepG2 cells [3] = assay: Real-time LDAI monitoring (live imaging); format: cell-based, human; conditions: HepG2 in DMEM with oleic acid, within 20 h
Method: Real-time LDAI monitoring: Morphological changes in HepG2 cells and LDs induced by treatment with 4 were monitored using a Nikon, Hamamatsu Photonics/Ti-E, CCD Camera for 20 h. The cell viability of the control cells was examined by staining with acridine orange (AO)/ethidium bromide (EB) dyes at the end of the experiment (20 h) (Supplementary Materials, Figure S12).

[4] = system: cultured human hepatocytes (C3A); set-up: method as in earlier work; conditions: ref "We have reported"; cited from earlier work
[5] = system: nuclear factor erythroid 2-related factor 2 (Nrf2); conditions: hepatocytes; ref "We have reported"; cited from earlier work
[6] = HepG2, DMEM loaded with fatty acid (+OA), read-out: Lipocytotoxicity (LC50), concentration at which 50% of cells died
[7] = HepG2, DMEM without fatty acid (−OA), read-out: Cytotoxicity (CC50), concentration at which 50% of cells died

O=C(O)C1Cc2c([nH]c3ccccc23)C(c2ccc(CO)o2)N1 (centres unmarked) [Compound 2, 1,2,3,4-tetrahydro-1-(5-(hydroxymethyl)-2-furanyl)-9H-pyrido [3,4-b]indole-3-carboxylic acid]
CC50 at 24 h [1, 6]: 484 µM
CC50 at 24 h [1, 7]: > 700 µM
inhibition at 100 µM (HepG2 cells [2]; Homo sapiens, HepG2, 24 h, 100 μM): 25.5%
inhibition at 200 µM (HepG2 cells [2]; Homo sapiens, HepG2, 24 h): 29.1%
inhibition at 400 µM (HepG2 cells [2]; Homo sapiens, HepG2, 24 h): 74%

O=C(O)c1cc2c([nH]c3ccccc32)c(-c2ccc(CO)o2)n1 [Compound 4, flazin]
Accumulated neutral LDs in real-time imaging (HepG2 cells [3]): significantly reduced in number
CC50 at 24 h [1, 6]: 600 µM
CC50 at 24 h [1, 7]: > 700 µM
LDAI (HepG2 cells [2]; 100 μM, 24 h): ns
inhibition at 200 µM (HepG2 cells [2]; Homo sapiens, HepG2, 24 h): 20%
inhibition at 400 µM (HepG2 cells [2]; Homo sapiens, HepG2, 24 h): 77.5%
Cytotoxicity [4]: without showing any significant cytotoxicity
Protection from oxidative damage by AAPH [4]: protects
Nrf2 activation [5]: activated
